# Measurements taken from patent US10167262B2, “Herbicidal substituted 3-arylpyrazoles” (FMC CORPORATION, priority 2014, dated 2019).
# How the values were obtained:
# Type in all cases: in vivo
# [1] = test system: blackgrass (Alopecurus myosuroides); experiment: Test C pre-/postemergence greenhouse test, plant response rating 0-100
# Procedure, shortened: (§1)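 Pre-emergence soil and post-emergence foliar sprays were applied simultaneously to seeded loam–sand pots and to 1–4-leaf plants in peat medium; greenhouse holding lasted 13–15 days, then plants were scored visually from 0 (no effect) to 100 (complete control).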
# corn (Zea mays) = experiment: as above
# Procedure, shortened: as §1
# [2] = test system: giant foxtail (Setaria faberii); experiment: as above
# Procedure, shortened: as §1
# [3] = test system: johnsongrass (Sorghum halepense); experiment: as above
# Procedure, shortened: as §1
# [4] = test system: lambsquarters (Chenopodium album); experiment: as above
# Procedure, shortened: as §1
# [5] = test system: large (Lg) crabgrass (Digitaria sanguinalis); experiment: as above
# Procedure, shortened: as §1
# [6] = test system: oilseed rape (Brassica napus); experiment: as above
# Procedure, shortened: as §1
# [7] = test system: pigweed (Amaranthus retroflexus); experiment: as above
# Procedure, shortened: as §1
# soybean (Glycine max) = experiment: as above
# Procedure, shortened: as §1
# [8] = test system: winter wheat (Triticum aestivum); experiment: as above
# Procedure, shortened: as §1
# [9] = test system: yellow nutsedge (Cyperus esculentus); experiment: as above
# Procedure, shortened: as §1
# [10] = test system: chickweed (common chickweed, Stellaria media); experiment: Test C postemergence greenhouse test, plant response rating 0-100; settings: for Plant response rating, Chickweed: scale 0 to 100
# Procedure, shortened: (§2)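 First, plants were raised in a sphagnum peat, vermiculite and nutrient medium to 1–4 leaves. Next, formulated test compounds were applied over the foliage. Finally, after 13–15 greenhouse days, injury was compared with controls and scored 0–100.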
# kochia (Kochia scoparia) = experiment: as above; settings: for Plant response rating, Kochia: scale 0 to 100
# Procedure, shortened: as §2
# wild oat (Avena fatua) = experiment: as above; settings: for Plant response rating, Oat, Wild: scale 0 to 100
# Procedure, shortened: as §2
# [11] = Postemergence, 250 g ai/ha, scale 0 to 100
# [12] = Postemergence, 500 g ai/ha, scale 0 to 100
smiles,measurement,setting,value
O=Cn1cc(C(=O)c2ccccc2)c(-c2cc(Cl)cc(Cl)c2)n1 [Compound 28],"Plant response rating (0 to 100), Blackgrass","[1]; Postemergence, 62 g ai/ha",0
same,"Plant response rating, Blackgrass","[1]; Postemergence, 125 g ai/ha, scale 0 to 100",0
same,"Plant response rating, Blackgrass",[1]; [11],0
same,"Plant response rating, Blackgrass",[1]; [12],0
same,"Plant response rating, Blackgrass","[1]; Preemergence, 62 g ai/ha",0
same,"Plant response rating, Blackgrass","[1]; Preemergence, 125 g ai/ha",0
same,"Plant response rating, Blackgrass","[1]; Preemergence, 250 g ai/ha",5
same,"Plant response rating, Blackgrass","[1]; Preemergence, 500 g ai/ha",5
same,"Plant response rating (0 to 100), Corn","corn (Zea mays); Postemergence, 62 g ai/ha",0
same,"Plant response rating (0 to 100), Corn","corn (Zea mays); Postemergence, 125 g ai/ha",0
same,"Plant response rating, Corn",corn (Zea mays); [11],0
same,"Plant response rating, Corn",corn (Zea mays); [12],0
same,"Plant response rating, Corn","corn (Zea mays); Preemergence, 62 g ai/ha",0
same,"Plant response rating, Corn","corn (Zea mays); Preemergence, 125 g ai/ha",0
same,"Plant response rating, Corn","corn (Zea mays); Preemergence, 250 g ai/ha",0
same,"Plant response rating, Corn","corn (Zea mays); Preemergence, 500 g ai/ha",0
same,"Plant response rating (0 to 100), Foxtail, Giant","[2]; Postemergence, 62 g ai/ha",0
same,"Plant response rating (0 to 100), Foxtail, Giant","[2]; Postemergence, 125 g ai/ha",5
same,"Plant response rating, Foxtail, Giant",[2]; [11],0
same,"Plant response rating, Foxtail, Giant",[2]; [12],0
same,"Plant response rating, Foxtail, Giant","[2]; Preemergence, 62 g ai/ha",0
same,"Plant response rating, Foxtail, Giant","[2]; Preemergence, 125 g ai/ha",0
same,"Plant response rating, Foxtail, Giant","[2]; Preemergence, 250 g ai/ha",10
same,"Plant response rating, Foxtail, Giant","[2]; Preemergence, 500 g ai/ha",10
same,"Plant response rating (0 to 100), Johnsongrass","[3]; Postemergence, 62 g ai/ha",0
same,"Plant response rating (0 to 100), Johnsongrass","[3]; Postemergence, 125 g ai/ha",0
same,"Plant response rating, Johnsongrass",[3]; [11],0
same,"Plant response rating, Johnsongrass",[3]; [12],0
same,"Plant response rating, Johnsongrass","[3]; Preemergence, 62 g ai/ha",0
same,"Plant response rating, Johnsongrass","[3]; Preemergence, 125 g ai/ha",0
same,"Plant response rating, Johnsongrass","[3]; Preemergence, 250 g ai/ha",0
same,"Plant response rating, Johnsongrass","[3]; Preemergence, 500 g ai/ha",0
same,"Plant response rating (0 to 100), Lambsquarters","[4]; Postemergence, 62 g ai/ha",90
same,"Plant response rating (0 to 100), Lambsquarters","[4]; Postemergence, 125 g ai/ha",90
same,"Plant response rating, Lambsquarters",[4]; [11],98
same,"Plant response rating, Lambsquarters",[4]; [12],98
same,"Plant response rating, Lambsquarters","[4]; Preemergence, 62 g ai/ha",100
same,"Plant response rating, Lambsquarters","[4]; Preemergence, 125 g ai/ha",100
same,"Plant response rating, Lambsquarters","[4]; Preemergence, 250 g ai/ha",100
same,"Plant response rating, Lambsquarters","[4]; Preemergence, 500 g ai/ha",100
same,"Plant response rating (0 to 100), Crabgrass, Large","[5]; Postemergence, 62 g ai/ha",0
same,"Plant response rating (0 to 100), Crabgrass, Large","[5]; Postemergence, 125 g ai/ha",0
same,"Plant response rating, Crabgrass, Large",[5]; [11],0
same,"Plant response rating, Crabgrass, Large",[5]; [12],0
same,"Plant response rating, Crabgrass, Large","[5]; Preemergence, 62 g ai/ha",0
same,"Plant response rating, Crabgrass, Large","[5]; Preemergence, 125 g ai/ha",0
same,"Plant response rating, Crabgrass, Large","[5]; Preemergence, 250 g ai/ha",15
same,"Plant response rating, Crabgrass, Large","[5]; Preemergence, 500 g ai/ha",15
same,"Plant response rating (0 to 100), Oilseed Rape","[6]; Postemergence, 62 g ai/ha",80
same,"Plant response rating (0 to 100), Oilseed Rape","[6]; Postemergence, 125 g ai/ha",85
same,"Plant response rating, Oilseed Rape",[6]; [11],85
same,"Plant response rating, Oilseed Rape",[6]; [12],95
same,"Plant response rating, Oilseed Rape","[6]; Preemergence, 62 g ai/ha",5
same,"Plant response rating, Oilseed Rape","[6]; Preemergence, 125 g ai/ha",30
same,"Plant response rating, Oilseed Rape","[6]; Preemergence, 250 g ai/ha",98
same,"Plant response rating, Oilseed Rape","[6]; Preemergence, 500 g ai/ha",100
same,"Plant response rating (0 to 100), Pigweed","[7]; Postemergence, 62 g ai/ha",90
same,"Plant response rating (0 to 100), Pigweed","[7]; Postemergence, 125 g ai/ha",98
same,"Plant response rating, Pigweed",[7]; [11],98
same,"Plant response rating, Pigweed",[7]; [12],100
same,"Plant response rating, Pigweed","[7]; Preemergence, 62 g ai/ha",100
same,"Plant response rating, Pigweed","[7]; Preemergence, 125 g ai/ha",100
same,"Plant response rating, Pigweed","[7]; Preemergence, 250 g ai/ha",100
same,"Plant response rating, Pigweed","[7]; Preemergence, 500 g ai/ha",100
same,"Plant response rating (0 to 100), Soybean","soybean (Glycine max); Postemergence, 62 g ai/ha",0
same,"Plant response rating (0 to 100), Soybean","soybean (Glycine max); Postemergence, 125 g ai/ha",0
same,"Plant response rating, Soybean",soybean (Glycine max); [11],5
same,"Plant response rating, Soybean",soybean (Glycine max); [12],5
same,"Plant response rating, Soybean","soybean (Glycine max); Preemergence, 62 g ai/ha",0
same,"Plant response rating, Soybean","soybean (Glycine max); Preemergence, 125 g ai/ha",0
same,"Plant response rating, Soybean","soybean (Glycine max); Preemergence, 250 g ai/ha",0
same,"Plant response rating, Soybean","soybean (Glycine max); Preemergence, 500 g ai/ha",0
same,"Plant response rating (0 to 100), Wheat","[8]; Postemergence, 62 g ai/ha",0
same,"Plant response rating (0 to 100), Wheat","[8]; Postemergence, 125 g ai/ha",0
same,"Plant response rating, Wheat",[8]; [11],0
same,"Plant response rating, Wheat",[8]; [12],0
same,"Plant response rating, Wheat","[8]; Preemergence, 62 g ai/ha",0
same,"Plant response rating, Wheat","[8]; Preemergence, 125 g ai/ha",0
same,"Plant response rating, Wheat","[8]; Preemergence, 250 g ai/ha",0
same,"Plant response rating, Wheat","[8]; Preemergence, 500 g ai/ha",0
same,"Plant response rating (0 to 100), Nutsedge, Yellow","[9]; Postemergence, 62 g ai/ha",0
same,"Plant response rating (0 to 100), Nutsedge, Yellow","[9]; Postemergence, 125 g ai/ha",0
same,"Plant response rating, Nutsedge, Yellow",[9]; [11],5
same,"Plant response rating, Nutsedge, Yellow",[9]; [12],0
same,"Plant response rating, Nutsedge, Yellow","[9]; Preemergence, 62 g ai/ha",0
same,"Plant response rating, Nutsedge, Yellow","[9]; Preemergence, 125 g ai/ha",0
same,"Plant response rating, Nutsedge, Yellow","[9]; Preemergence, 250 g ai/ha",0
same,"Plant response rating, Nutsedge, Yellow","[9]; Preemergence, 500 g ai/ha",0
same,"Plant response rating (0 to 100), Chickweed",[10]; 62 g ai/ha,95
same,"Plant response rating (0 to 100), Chickweed",[10]; 125 g ai/ha,95
same,"Plant response rating, Chickweed",[10]; 250 g ai/ha,100
same,"Plant response rating, Chickweed",[10]; 500 g ai/ha,98
same,"Plant response rating (0 to 100), Kochia",kochia (Kochia scoparia); 62 g ai/ha,80
same,"Plant response rating (0 to 100), Kochia",kochia (Kochia scoparia); 125 g ai/ha,85
same,"Plant response rating, Kochia",kochia (Kochia scoparia); 250 g ai/ha,85
same,"Plant response rating, Kochia",kochia (Kochia scoparia); 500 g ai/ha,90
same,"Plant response rating (0 to 100), Oat, Wild",wild oat (Avena fatua); 62 g ai/ha,0
same,"Plant response rating (0 to 100), Oat, Wild",wild oat (Avena fatua); 125 g ai/ha,0
same,"Plant response rating, Oat, Wild",wild oat (Avena fatua); 250 g ai/ha,0
same,"Plant response rating, Oat, Wild",wild oat (Avena fatua); 500 g ai/ha,0
